From publication PMC9656702, “Unveiling a New Selenocyanate as a Multitarget Candidate with Anticancer, Antileishmanial and Antibacterial Potential” (Molecules, 2022)
Values after ≈ are worked out from the molar mass of the structure shown. Like-named read-outs stand apart in the source and are kept apart here.

Assays:
E. coli = assay: MIC and MBC assay, E. coli; assay type: cell-based, Escherichia coli; details: Gram-negative; for MIC / MBC: Escherichia coli; for MIC / MIC E. coli: 24 h at 37 °C
Procedure: (§1) The minimum inhibitory concentration (MIC) and the minimum bactericidal concentration (MBC) values of the selenocompounds were determined in a panel of six bacterial strains as a first approach to assess their antibacterial activity. Thus, the synthesized derivatives were tested against the Gram-negative bacteria Escherichia coli (E. coli), Klebsiella pneumoniae (K. pneumoniae) and Citrobacter freundii (C. freundii); and the Gram-positive bacteria Staphylococcus aureus (S. aureus), Streptococcus faecalis (S. faecalis), and Staphylococcus epidermidis (S. epidermidis). […]
(§2) All the selenocompounds were screened for their in vitro inhibitory activity against three Gram-negative (E. coli, K. pneumoniae and C. freundii) and three Gram-positive (S. aureus, S. faecalis and S. epidermidis) bacteria. Bacterial strains were kindly provided by the Department of Microbiology and Parasitology of the University of Navarra. The bacterial cells were grown in tryptic soy agar (TSA) plates and maintained at 4 °C.
(§3) The compounds were firstly dissolved in DMSO and serially diluted in a 96-well plate in tryptic soy broth (TSB) with eleven concentrations ranging from 400 µg/mL to 0.4 µg/mL with a final volume of 100 µL. Subsequently, 100 µL of a diluted suspension of bacterial cells with an optical density of 0.125 measured at 600 nm in TSB (inoculum of approximately 10^5 CFU/mL) was added to each well and incubated at 37 °C for 24 h. After the incubation period, each well was analyzed for the presence or absence of visual growth of bacterial cells. The lowest concentration of the test compound at which no visible growth occurred was determined as the MIC values. After incubation, 10 µL of the bacterial suspension from each well that presented antibacterial activity was added to divided TSA plates and incubated at 37 °C overnight.

C. freundii = assay: MIC and MBC assay, C. freundii; assay type: cell-based, Citrobacter freundii; details: for MIC / MBC: Citrobacter freundii; for MIC: read-out: MIC C. freundii; for MBC: read-out: MBC C. freundii
Procedure: as §1, §2, §3

S. faecalis = assay: MIC and MBC assay, S. faecalis; assay type: cell-based, Streptococcus faecalis; details: for MIC / MBC: Enterococcus faecalis; for MIC: read-out: MIC S. faecalis; for MBC: read-out: MBC S. faecalis
Procedure: as §1, §2, §3

K. pneumoniae = assay: MIC and MBC assay, K. pneumoniae; assay type: cell-based, Klebsiella pneumoniae; details: for MIC / MBC: Klebsiella pneumoniae; for MIC: read-out: MIC K. pneumoniae; for MBC: read-out: MBC K. pneumoniae
Procedure: as §1, §2, §3

[1] = tested on: Leishmania infantum promastigotes; assay: Parasite viability MTT assay, L. infantum promastigotes; assay type: cell-based; details: 48 h
Procedure: (§4) The cytotoxic activities of all the derivatives against Leishmania major and Leishmania infantum promastigotes were studied by the MTT assay after exposing the parasites to five different concentrations of each compound for 48 h. Miltefosine and paromomycin, two currently available drugs for the treatment of leishmaniasis, were used as positive controls.
(§5) L. major (clone VI, MHOM/IL/80/Friendlin) and L. infantum (BCN-150) promastigotes were grown in continuous stirred M199 1X medium (Sigma, St Louis, MO, USA) at 26 °C supplemented with 25 mM HEPES (pH 7.2), 10% heat-inactivated FBS (Gibco, Gaithersburg, MD, USA), 0.1 mM adenine, 0.0005% (w/v) hemin, 0.0001% (w/v) biotin, 100 UI/mL penicillin and […] streptomycin (Gibco, Gaithersburg, MD, USA). Media were changed before each experiment to achieve exponential growth.
(§6) The antileishmanial activity was assessed by the MTT assay as previously described. Briefly, 3 × 10^6 promastigotes of both Leishmania strains were placed into a 96-well plate with supplemented M199 1X medium during their logarithmic growth phase. The parasites were treated with five increasing concentrations of the compounds ranging between 0.1 and 1000 µM at 26 °C for 48 h. At the termination point, 20 µL of MTT (5 mg/mL) was added and further incubated for 4 h. The resultant formazan crystals formed were dissolved in 80 µL of DMSO and the absorbance was measured at 550 nm on a microplate reader. IC50 values were calculated using OriginPro 8.5.1. software by nonlinear curve fitting. Miltefosine and paromomycin were used as reference drugs. Data were obtained from at least three independent experiments performed in triplicates.

HCT-116 = assay: Antiproliferative MTT assay, HCT-116 colon cancer cells; assay type: cell-based, human
Procedure: (§7) The antiproliferative activities of the cinnamyl and benzodioxyl derivatives were assessed against six human cell lines of three different types of cancer (colon, lung, and breast) using the 3-(4,5-dimethylthiazol-2-yl)-2,5-diphenyltetrazolium bromide (MTT) assay at seven concentrations for 48 h. The results are expressed as the IC50 values and are outlined in Table 1.
(§8) The cell lines were obtained from the American Type Culture Collection (ATCC). All the cancer cell lines (HT-29, HCT-116, H1299, HTB-54, MDA-MB-231 and MCF-7) and the nontumorigenic cells (184B5) were maintained in RPMI 1640 medium (Gibco), supplemented with 10% fetal bovine serum (FBS; Gibco) and 1% antibiotics (10.00 units/mL penicillin and 10.00 mg/mL streptomycin; Gibco). Cells were preserved in tissue culture flasks at 37 °C and 5% CO2. Culture medium was replaced every three days.
(§9) The cytotoxic effect of each compound was initially tested at seven different concentrations ranging between 0.5 and 100 µM in the cell lines mentioned above. The cells were seeded (1 × 10^4 cells per well) in 96-well plates and incubated at 37 °C and 5% CO2 for 24 h. After attachment, cells were treated with either dimethyl sulfoxide (DMSO) or increasing concentrations of the corresponding selenocompound for 48 h. The effect of the compounds on cell viability was determined by the MTT assay. In brief, 20 µL of MTT (5 mg/mL) was added to each well 2.5 h prior to experiment termination. At the end of the incubation, the medium was removed, and the formazan crystals were dissolved in 50 µL of DMSO. Absorbance was measured at 550 nm on a microplate reader. IC50 values were calculated using OriginPro 8.5.1. software by nonlinear curve fitting. Selectivity indexes were calculated as the ratio of the IC50 values determined for the nonmalignant and the tumoral cells in the breast cell lines (IC50 (184B5)/IC50 (MDA-MB-231) and IC50 (184B5)/IC50 (MCF-7)). Data were obtained from at least three independent experiments performed in triplicates.

HT-29 = assay: Antiproliferative MTT assay, HT-29 colon cancer cells; assay type: cell-based, human
Procedure: as §7, §8, §9

[2] = tested on: Leishmania major promastigotes; assay: Parasite viability MTT assay, L. major promastigotes; assay type: cell-based; details: 48 h
Procedure: as §4, §5, §6

MCF-7 = assay: Antiproliferative MTT assay, MCF-7 breast cancer cells; assay type: cell-based, human
Procedure: as §7, §8, §9

[3] = Leishmania infantum, promastigotes, MTT assay, mean ± SD, read-out: IC50 Leishmania infantum
[4] = Homo sapiens, HCT-116, 48 h, MTT assay, 48 h, mean ± SD, read-out: IC50 HCT-116
[5] = MTT assay, 48 h, mean ± SD, read-out: IC50 HCT-116
[6] = Homo sapiens, HT-29, 48 h, MTT assay, 48 h, mean ± SD, read-out: IC50 HT-29
[7] = MTT assay, 48 h, mean ± SD, read-out: IC50 HT-29
[8] = Leishmania major, promastigotes, MTT assay, mean ± SD, read-out: IC50 Leishmania major
[9] = Homo sapiens, MCF7, MTT assay, 48 h, mean ± SD, read-out: IC50 MCF-7
[10] = promastigotes, MTT assay, mean ± SD, read-out: IC50 Leishmania infantum
[11] = promastigotes, MTT assay, mean ± SD, read-out: IC50 Leishmania major
[12] = MTT assay, 48 h, mean ± SD, read-out: IC50 MCF-7

Compound	MIC (E. coli)	MIC (C. freundii; Gram-negative, 24 h at 37 °C)	MIC (S. faecalis; Gram-positive, 24 h at 37 °C)	MIC (K. pneumoniae; Gram-negative, 24 h at 37 °C)	IC50 [1, 3]	IC50 (HCT-116; [4])	IC50 (HCT-116; [5])	IC50 (HT-29; [6])	IC50 (HT-29; [7])	IC50 [2, 8]	IC50 (MCF-7; [9])	MIC E. coli (E. coli)	MIC C. freundii (C. freundii; Gram-negative, 24 h at 37 °C)	MIC S. faecalis (S. faecalis; Gram-positive, 24 h at 37 °C)	MIC K. pneumoniae (K. pneumoniae; Gram-negative, 24 h at 37 °C)	IC50 [1, 10]	IC50 [2, 11]	IC50 (MCF-7; [12])	MBC (E. coli)	MBC S. faecalis (S. faecalis; Gram-positive)	other results
C(=C\c1ccccc1)/C[Se][Se]C/C=C/c1ccccc1 [Compound 1b, 1,2-Dicinnamyldiselenide]	> 200 µg/mL	> 200 µg/mL	> 200 µg/mL	> 200 µg/mL	39.4 ± 5.1 µM	< 40 µM	36.6 ± 6.7 µM	< 40 µM	36 ± 5.4 µM	47.6 ± 16 µM	> 100 µM	–	–	–	–	–	–	–	–	–	–
O=C(CC[Se]Cc1ccc2c(c1)OCO2)[c-]1cccc1.[Fe+2].c1cc[cH-]c1 [Compound 2c, 3-((Benzo[d][1,3]dioxol-5-ylmethyl)selanyl)-1-ferrocenylpropan-1-one]	–	–	–	–	–	–	> 100 µM	–	21.4 ± 4.3 µM	–	–	>200 µg/mL	>200 µg/mL	>200 µg/mL	>200 µg/mL	7.2 ± 3.6 µM	11.2 ± 3 µM	14.8 ± 4.3 µM	–	–	–
O=C(CC[Se]CC=Cc1ccccc1)[c-]1cccc1.[Fe+2].c1cc[cH-]c1 [Compound 1c, 3-(Cinnamylselanyl)-1-ferrocenylpropan-1-one]	–	–	–	–	–	–	> 100 µM	–	> 100 µM	–	–	>200 µg/mL	>200 µg/mL	>200 µg/mL	>200 µg/mL	23.2 ± 10.7 µM	25.8 ± 2.7 µM	18.5 ± 5.4 µM	–	–	–
N#C[Se]Cc1ccc2c(c1)OCO2 [Compound 2a, 5-(Selenocyanatomethyl)benzo[d][1,3]dioxole]	50 µg/mL (≈ 208 µM)	100 µg/mL (≈ 416 µM)	25 µg/mL (≈ 104 µM)	50 µg/mL (≈ 208 µM)	< 5 µM	69.7 ± 5.3 µM	–	< 12 µM	11.9 ± 3.4 µM	< 5 µM	59.3 ± 6.5 µM	–	–	≤ 25 µg/mL	–	3.7 ± 0.1 µM	3.3 ± 0.9 µM	–	50 µg/mL (≈ 208 µM)	no bactericidal effect was observed	MBC (C. freundii; Gram-negative): 100 µg/mL (≈ 416 µM); MBC (S. faecalis; Gram-positive): > 200 µg/mL; MBC (K. pneumoniae; Gram-negative): 50 µg/mL (≈ 208 µM)
N#C[Se]C/C=C/c1ccccc1 [Compound 1a, (E)-(3-selenocyanatoprop-1-en-1-yl)benzene]	100 µg/mL (≈ 450 µM)	–	–	–	–	–	–	–	–	–	–	–	–	–	–	–	–	–	> 200 µg/mL	no bactericidal effect was observed	MIC (C. freundii; 24 h): 100 µg/mL (≈ 450 µM); MBC (C. freundii): 100 µg/mL (≈ 450 µM); MIC (S. faecalis; 24 h): 50 µg/mL (≈ 225 µM); MBC (S. faecalis): > 200 µg/mL; MIC (K. pneumoniae; 24 h): 100 µg/mL (≈ 450 µM); MBC (K. pneumoniae): 100 µg/mL (≈ 450 µM); IC50 ([1]; Leishmania infantum, read-out: IC50 Leishmania infantum, promastigotes, MTT assay, 48 h, mean ± SD): < 5 µM; IC50 ([1]; read-out: IC50 Leishmania infantum, promastigotes, MTT assay, mean ± SD): 3.3 ± 1.8 µM; IC50 (HCT-116; Homo sapiens, HCT-116, 48 h, read-out: IC50 HCT-116, MTT assay, 48 h, mean ± SD): > 50 µM; IC50 (HCT-116; read-out: IC50 HCT-116, MTT assay, 48 h, mean ± SD): 68.8 ± 6.3 µM; IC50 (HT-29; Homo sapiens, HT-29, 48 h, read-out: IC50 HT-29, MTT assay, 48 h, mean ± SD): > 50 µM; IC50 (HT-29; read-out: IC50 HT-29, MTT assay, 48 h, mean ± SD): 61.2 ± 9.7 µM; IC50 ([2]; Leishmania major, read-out: IC50 Leishmania major, promastigotes, MTT assay, 48 h, mean ± SD): < 5 µM; IC50 ([2]; read-out: IC50 Leishmania major, promastigotes, MTT assay, mean ± SD): 4.6 ± 1.7 µM; IC50 (MCF-7; Homo sapiens, MCF7, 48 h, read-out: IC50 MCF-7, MTT assay, 48 h, mean ± SD): > 50 µM; IC50 (MCF-7; read-out: IC50 MCF-7, MTT assay, 48 h, mean ± SD): 55 ± 2.3 µM
